Measured values from US8552022B2, “Substituted cyclopropyl compounds, compositions containing such compounds and methods of treatment” (Merck Sharp & Dohme Corp., priority 2009, dated 2013).

Molecular target: T1, GPR119 (UniProt Q8TDV5, S309L, species not given)
T1 sequence (Q8TDV5 1-335 S309L): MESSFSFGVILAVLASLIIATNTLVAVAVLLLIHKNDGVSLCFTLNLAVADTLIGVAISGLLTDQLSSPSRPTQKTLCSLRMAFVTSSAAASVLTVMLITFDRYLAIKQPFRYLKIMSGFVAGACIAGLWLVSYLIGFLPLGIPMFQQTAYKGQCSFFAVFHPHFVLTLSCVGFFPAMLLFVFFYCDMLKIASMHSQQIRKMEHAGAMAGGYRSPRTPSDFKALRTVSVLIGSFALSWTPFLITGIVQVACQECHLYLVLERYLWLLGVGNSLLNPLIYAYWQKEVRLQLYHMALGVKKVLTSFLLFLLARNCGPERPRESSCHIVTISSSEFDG
Assay: GPR119 signaling, cyclic AMP (cAMP) HTRF assay
Format: cell-based, human (S309L variant) or murine
Conditions: CHO cells with Gα15 and murine GPR119 or HEK293 Flp-In cells with human GPR119 S309L, read-out: EC50 (agonist activation of GPR119, cAMP)
Source text: The title compound was synthesized using 2-{2-[1-(5-chloropyrimidin-2-yl)piperidin-4-yl]cyclopropyl}ethyl 4-methylbenzenesulfonate from step 1 of this example by a general procedure analogous that described in Example 59. LRMS calc: 424.9; obs: 425.01 (M+1). Measurement of GPR119Signaling Using a Cyclic AMP (cAMP) Homogenous Time Resolved Fluorescence (HTRF) Assay
Chinese hamster ovary (CHO) cell lines stably transfected with the permissive guanine nucleotide binding protein alpha 15 (Gα15) and murine GPR119 were maintained in DMEM media containing FBS, penicillin-streptomycin, puromycin, and G418 (geneticin). Alternatively, human embryonic kidney (HEK)293 Flp-In cells (Invitrogen, Carlsbad, Calif.) were stably transfected with a human SNP variant (S309L) of GPR119 and maintained in DMEM media containing FBS, penicillin-streptomycin, and hygromycin. Agonist activation of the GPR119 receptor was measured in receptor transfected cells described above, treated with compounds of this invention, using a commercial homogenous time resolved fluorescence (HTRF) kit for measurement of cAMP (CisBio, Bedford, Mass.). The assay was performed in 96-well half-volume plates (murine) or 384-well plates (human) following the manufacturers instructions. Briefly, suspended cells were incubated with a dose titration of test compound at room temperature for 60 min, lysed, and incubated with HTRF reagents for an additional 60 min. The plate was read using an Envision multilabel reader (Perkin Elmer) adjusted to read time resolved fluorescence and the cAMP concentrations were extrapolated from a cAMP calibration curve. […] The concentration of test compound required to stimulate a half-maximal response (EC50), and efficacy as compared to an internal agonist control, was determined from a sigmoidal 4-parameter curve fit of the resulting plot of normalized activity versus compound concentration.

Structure (SMILES) | EC50 [nM]
CN1C(=O)Cc2cc(NCC[C@@H]3C[C@@H]3C3CCN(c4ncc(Cl)cn4)CC3)ccc21 [Ex 51, 5-[(2-{(1S,2S)-2-[1-(5-chloropyrimidin-2-yl)piperidin-4-yl]cyclopropyl}ethyl)amino]-1-methyl-1,3-dihydro-2H-indol-2-one] | < 10
O=C1Cc2cc(NCC[C@@H]3C[C@@H]3C3CCN(c4ncc(Cl)cn4)CC3)cc(F)c2N1 [Ex 53, 5-[(2-{(1S,2S)-2-[1-(5-chloropyrimidin-2-yl)piperidin-4-yl]cyclopropyl}ethyl)amino]-7-fluoro-1,3-dihydro-2H-indol-2-one] | < 10
O=C1Cc2cc(NCC[C@@H]3C[C@@H]3C3CCN(c4ncc(Cl)cn4)CC3)cc(Cl)c2N1 [Ex 54, 7-chloro-5-[(2-{(1S,2S)-2-[1-(5-chloropyrimidin-2-yl)piperidin-4-yl]cyclopropyl}ethyl)amino]-1,3-dihydro-2H-indol-2-one] | < 10

Second part, the compound after the results:

EC50 [nM] | Structure (SMILES)
10 to 50 | CC(=O)Nc1ccc(NCC[C@@H]2C[C@@H]2C2CCN(c3ncc(Cl)cn3)CC2)cc1 [Ex 52, N-{4-[(2-{(1S,2S)-2-[1-(5-chloropyrimidin-2-yl)piperidin-4-yl]cyclopropyl}ethyl)amino]phenyl}acetamide]
< 10 | CC(=O)Nc1ccc(NCC[C@@H]2C[C@@H]2C2CCN(c3ncc(Cl)cn3)CC2)cn1 [Ex 55, N-{5-[(2-{(1S,2S)-2-[1-(5-chloropyrimidin-2-yl)piperidin-4-yl]cyclopropyl}ethyl)amino]pyridin-2-yl}acetamide]
< 10 | CC(C)(C)C(=O)Nc1ccc(NCC[C@@H]2C[C@@H]2C2CCN(c3ncc(Cl)cn3)CC2)cn1 [Ex 56, N-{5-[(2-{(1S,2S)-2-[1-(5-chloropyrimidin-2-yl)piperidin-4-yl]cyclopropyl}ethyl)amino]pyridin-2-yl}-2,2-dimethyl propanamide]
< 10 | Clc1cnc(N2CCC([C@H]3C[C@H]3CCNc3ccc4cn[nH]c4c3)CC2)nc1 [Ex 57, N-(2-{(1S,2S)-2-[1-(5-chloropyrimidin-2-yl)piperidin-4-yl]cyclopropyl}ethyl)-1H-indazol-6-amine]
